# From ChEMBL document CHEMBL1201862, “PubChem BioAssay data set” (2004)
#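 Briefly, cells in 96-well plates were exposed to five compound concentrations for 48 h, and endpoints were estimated by linear interpolation. GI50: concentration for 50% inhibition of growth.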 Active and inactive are the calls of the source. No stated cut-off is given here; in the data, active = GI50 up to about 1.1 µM and inactive = higher.
# Tests used:
# Test in all cases: NCI-60 cell line screen, 48 h
# M19-MEL = system: M19-MEL
# LXFL 529 = system: LXFL 529
# HOP-18 = system: HOP-18
# CAKI-1 = system: CAKI-1
# A498 = system: A498
# HCT-15 = system: HCT-15
# DMS-273 = system: DMS-273
# SK-OV-3 = system: SK-OV-3
# SNB-19 = system: SNB-19
# SK-MEL-2 = system: SK-MEL-2
# SK-MEL-28 = system: SK-MEL-28
# TK-10 = system: TK-10
# KM-20L2 = system: KM-20L2
# EKVX = system: EKVX
# ACHN = system: ACHN
# SR = system: SR
# OVCAR-5 = system: OVCAR-5
# HOP-92 = system: HOP-92
# U-251 = system: U-251
# SF-268 = system: SF-268
# OVCAR-3 = system: OVCAR-3
# 786-0 = system: 786-0
# UACC-257 = system: UACC-257
# A549 = system: A549
# SK-MEL-5 = system: SK-MEL-5
# HCC 2998 = system: HCC 2998
# IGROV-1 = system: IGROV-1
# SW-620 = system: SW-620
# OVCAR-8 = system: OVCAR-8
# MOLT-4 = system: MOLT-4
# RXF 393 = system: RXF 393
# SF-539 = system: SF-539
# UACC-62 = system: UACC-62
# SN12C = system: SN12C
# HCT-116 = system: HCT-116
# NCI-H522 = system: NCI-H522
# NCI-H460 = system: NCI-H460
# SNB-75 = system: SNB-75
# HOP-62 = system: HOP-62
# HL-60 = system: HL-60
# NCI-H226 = system: NCI-H226
# COLO 205 = system: COLO 205
# K562 = system: K562
# UO-31 = system: UO-31
# HT-29 = system: HT-29
# KM12 = system: KM12
# XF498 = system: XF498
# DMS-114 = system: DMS-114
# SF-295 = system: SF-295
# Malme-3M = system: Malme-3M
# M14 = system: M14
# OVCAR-4 = system: OVCAR-4
# RPMI-8226 = system: RPMI-8226
# NCI-H23 = system: NCI-H23
# LOX IMVI = system: LOX IMVI
# DLD-1 = system: DLD-1
# SNB-78 = system: SNB-78
# CCRF-CEM = system: CCRF-CEM
structure (smiles),measurement,setting,value
CN1CCN(CCSC2Cc3cc(Cl)ccc3Sc3ccccc32)CC1 (stereo unspecified),GI50,M19-MEL,2.13 µM (inactive)
same,GI50,LXFL 529,2.89 µM (inactive)
same,GI50,HOP-18,9.1 µM (inactive)
same,GI50,CAKI-1,6.67 µM (inactive)
same,GI50,A498,6.41 µM (inactive)
same,GI50,HCT-15,4.59 µM
same,GI50,DMS-273,2.1 µM (inactive)
same,GI50,SK-OV-3,16.7 µM (inactive)
same,GI50,SNB-19,13.9 µM (inactive)
same,GI50,SK-MEL-2,1.86 µM (inactive)
same,GI50,SK-MEL-28,1.86 µM (inactive)
same,GI50,TK-10,5.13 µM (inactive)
same,GI50,KM-20L2,1.74 µM (inactive)
same,GI50,EKVX,15.1 µM (inactive)
same,GI50,ACHN,8.36 µM (inactive)
same,GI50,SR,5.07 µM (inactive)
same,GI50,OVCAR-5,5.37 µM (inactive)
same,GI50,HOP-92,4.5 µM (inactive)
same,GI50,U-251,5.4 µM (inactive)
same,GI50,SF-268,8.47 µM (inactive)
same,GI50,OVCAR-3,8.2 µM (inactive)
same,GI50,786-0,4.55 µM (inactive)
same,GI50,UACC-257,1.9 µM (inactive)
same,GI50,A549,6.05 µM (inactive)
same,GI50,SK-MEL-5,3.26 µM (inactive)
same,GI50,HCC 2998,4.18 µM (inactive)
same,GI50,IGROV-1,10.3 µM (inactive)
same,GI50,SW-620,2.81 µM (inactive)
same,GI50,OVCAR-8,7.91 µM (inactive)
same,GI50,MOLT-4,2.44 µM (inactive)
same,GI50,RXF 393,4.19 µM (inactive)
same,GI50,SF-539,3.15 µM (inactive)
same,GI50,UACC-62,1.91 µM (inactive)
same,GI50,SN12C,9.12 µM (inactive)
same,GI50,HCT-116,5.69 µM (inactive)
same,GI50,NCI-H522,5.93 µM (inactive)
same,GI50,NCI-H460,4.95 µM (inactive)
same,GI50,SNB-75,5.82 µM (inactive)
same,GI50,HOP-62,12.7 µM (inactive)
same,GI50,HL-60,1.73 µM (inactive)
same,GI50,NCI-H226,16.9 µM (inactive)
same,GI50,COLO 205,1.74 µM (inactive)
same,GI50,K562,1.71 µM (inactive)
same,GI50,UO-31,8.11 µM (inactive)
same,GI50,HT-29,1.63 µM (inactive)
same,GI50,KM12,3.46 µM (inactive)
same,GI50,XF498,3.03 µM (inactive)
same,GI50,DMS-114,4.9 µM (inactive)
same,GI50,SF-295,4.18 µM (inactive)
same,GI50,Malme-3M,2.45 µM (inactive)
same,GI50,M14,1.91 µM (inactive)
same,GI50,OVCAR-4,6.81 µM (inactive)
same,GI50,RPMI-8226,2.26 µM (inactive)
same,GI50,NCI-H23,7.89 µM (inactive)
same,GI50,LOX IMVI,2.28 µM (inactive)
same,GI50,DLD-1,3.7 µM (inactive)
O=[N+]([O-])c1cccc(C2=NN(c3ccccc3)C3c4cc(Br)ccc4OCC23)c1 (stereo unspecified),GI50,M19-MEL,> 100 µM (inactive)
same,GI50,LXFL 529,> 100 µM (inactive)
same,GI50,HOP-18,> 100 µM (inactive)
same,GI50,A498,> 100 µM (inactive)
same,GI50,DMS-273,> 100 µM (inactive)
same,GI50,SK-OV-3,> 100 µM (inactive)
same,GI50,SNB-19,> 100 µM (inactive)
same,GI50,SK-MEL-2,> 100 µM (inactive)
same,GI50,SK-MEL-28,> 100 µM (inactive)
same,GI50,TK-10,> 100 µM (inactive)
same,GI50,KM-20L2,> 100 µM (inactive)
same,GI50,EKVX,87.7 µM (inactive)
same,GI50,ACHN,> 100 µM (inactive)
same,GI50,OVCAR-5,> 100 µM (inactive)
same,GI50,HOP-92,12 µM (inactive)
same,GI50,U-251,> 100 µM (inactive)
same,GI50,SF-268,> 100 µM (inactive)
same,GI50,OVCAR-3,> 100 µM (inactive)
same,GI50,786-0,> 100 µM (inactive)
same,GI50,UACC-257,> 100 µM (inactive)
same,GI50,A549,> 100 µM (inactive)
same,GI50,SNB-78,> 100 µM (inactive)
same,GI50,SK-MEL-5,> 100 µM (inactive)
same,GI50,HCC 2998,> 100 µM (inactive)
same,GI50,IGROV-1,> 100 µM (inactive)
same,GI50,SW-620,> 100 µM (inactive)
same,GI50,OVCAR-8,> 100 µM (inactive)
same,GI50,MOLT-4,> 100 µM (inactive)
same,GI50,RXF 393,> 100 µM (inactive)
same,GI50,SF-539,> 100 µM (inactive)
same,GI50,HCT-116,45.9 µM (inactive)
same,GI50,NCI-H522,97.5 µM (inactive)
same,GI50,NCI-H460,> 100 µM (inactive)
same,GI50,SNB-75,> 100 µM (inactive)
same,GI50,HOP-62,> 100 µM (inactive)
same,GI50,HL-60,> 100 µM (inactive)
same,GI50,COLO 205,> 100 µM (inactive)
same,GI50,K562,> 100 µM (inactive)
same,GI50,UO-31,17.3 µM (inactive)
same,GI50,HT-29,46.1 µM (inactive)
same,GI50,KM12,81.8 µM (inactive)
same,GI50,XF498,> 100 µM (inactive)
same,GI50,DMS-114,> 100 µM (inactive)
same,GI50,SF-295,> 100 µM (inactive)
same,GI50,Malme-3M,> 100 µM (inactive)
same,GI50,RPMI-8226,> 100 µM (inactive)
same,GI50,CCRF-CEM,> 100 µM (inactive)
same,GI50,NCI-H23,> 100 µM (inactive)
same,GI50,LOX IMVI,> 100 µM (inactive)
same,GI50,DLD-1,> 100 µM (inactive)
